Results taken from publication PMC9266368, “Synthesis and Biological Evaluation of Small Molecules as Potential Anticancer Multitarget Agents” (International Journal of Molecular Sciences, 2022).

Key:
[1] = tested on: A-549 (lung adenocarcinoma); assay: MTT cell viability assay, A-549; assay type: cell-based; settings: Homo sapiens, A549, 48 h, 2 days incubation, average ±SD of three experiments
Outline: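 Cells seeded at 3 × 10^3 (A549, HEK-293) or 5 × 10^3 (HT-29, MCF-7) per well and exposed to serial compound dilutions for 2 days at 37 °C, 5% CO2. MTT added for 3 h, formazan dissolved in DMSO, absorbance at 550 nm; viability relative to untreated cells, IC50 from three independent experiments.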

[2] = target: T1, membrane PD-L1 (mPD-L1) (Homo sapiens, UniProt Q9NZQ7); assay: Membrane PD-L1 relative quantification by flow cytometry; assay type: cell-based; settings: for mPD-L1 relative detection, A-549 / mPD-L1 relative detection, MCF-7 / mPD-L1 relative detection, HT-29: 24 h, 100 or 10 μM (Table 7), percentage referred to DMSO control
T1 construct: endogenous in cells; host or cells: HT-29, A-549, MCF-7

[3] = tested on: c-Myc; assay: c-Myc relative quantification by flow cytometry; assay type: cell-based, human; settings: for c-Myc relative detection, A-549 / c-Myc relative detection, HT-29 / c-Myc relative detection, MCF-7: 24 h, 100 or 10 μM (Table 7), relative to DMSO control
[4] = target: T2, PD-L1 (Homo sapiens, UniProt Q9NZQ7); assay: Protein thermal shift (PTS) assay; assay type: binding; settings: for PTS Tm: PD-L1 melting temperature, DMSO 34 °C; for PTS ΔTm: shift of PD-L1 melting temperature vs DMSO
T2 construct: purchased ab167713
Text: This assay measures the melting point (Tm) of the target protein which is a proxy of its stability that can be altered by the binding of a ligand. A change in the melting point relative to the unliganded form implies that a ligand has bound itself to the targeted protein. According to the fundamentals of this technique, an increase in Tm means that the binding of the ligand leads to a stabilization of the target protein, while a decrease in Tm is probably due to the fact that the binding between the ligand and its target leads to a destabilization of the protein. In this case, the tested compounds were able to change the PD-L1 melting temperature.
PTS assay was performed by following the instructions indicated in Protein Thermal ShiftTM Dye Kit (Applied Biosystems reference 4461146), using 2 μL of a 0.1 mg/mL of an aqueous solution of PD-L1 (reference ab167713) and 1.5 μL of a 0.1 mg/mL aqueous solution of the corresponding product. The melting curves were registered by a StepOneTM Real-Time PCR System.

[5] = tested on: HMEC-1 cells; assay: Tube formation on Matrigel (antiangiogenic activity); assay type: cell-based; settings: 100 μM, 24 h
Experimental: Then we went on to study the effect of these selected compounds on the formation of new capillary networks. Again, HMEC-1 cells were seeded on Matrigel and treated with compounds 21, 22, and 23 at 100 μM. After 24 h of the corresponding treatments, we compared the cultures with non-treated cells, and the results are depicted in Figure 5d–f.
Wells of a IBIDI 15-well μ-plate for angiogenesis were coated with 15 μL of Matrigel® (10 mg/mL, BD Biosciences Europe) at 4 °C. After gelatinization at 37 °C for 30 min, HMEC-1 cells were seeded at 2 × 10^4 cells/well in 25 μL of culture medium on top of the Matrigel and were incubated for 30 min at 37 °C while they were attached.
For the tube-formation assay (study of antiangiogenic activity), 100 μM of compounds was added 20 min after seeding HMEC-1 on Matrigel.

[6] = HT-29, compared to non-treated cells

T1 sequence (Q9NZQ7 19-290): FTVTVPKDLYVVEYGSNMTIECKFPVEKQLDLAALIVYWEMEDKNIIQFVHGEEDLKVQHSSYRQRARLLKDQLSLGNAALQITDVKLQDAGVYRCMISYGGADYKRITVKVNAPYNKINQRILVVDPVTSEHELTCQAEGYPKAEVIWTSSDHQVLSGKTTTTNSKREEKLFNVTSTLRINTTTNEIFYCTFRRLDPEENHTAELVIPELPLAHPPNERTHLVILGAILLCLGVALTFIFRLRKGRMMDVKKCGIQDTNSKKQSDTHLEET
T2 sequence (Q9NZQ7 19-290): as above

Row | Structure (SMILES) | IC50 [1] [µM] | mPD-L1 relative detection, A-549 [2] [%] | mPD-L1 relative detection, MCF-7 [2] [%] | c-Myc relative detection, A-549 [3] [%] | c-Myc relative detection, HT-29 ([3]; HT-29) [%] | c-Myc relative detection, MCF-7 [3] [%] | PTS Tm [4] [°C] | PTS ΔTm [4] [°C] | Antiangiogenic effect on formation of new HMEC-1 capillary networks [5] | mPD-L1 relative detection, HT-29 ([2]; HT-29) [%] | Reduction/inhibition of membrane PD-L1, HT-29 [2, 6] | Inhibition of c-Myc, HT-29 [3, 6] [%]
1 | Nc1ccc(-c2cn(Cc3ccccc3Cl)nn2)cc1 [Compound 21, 4-(1-(2-chlorobenzyl)-1H-1,2,3-triazol-4-yl)aniline] | > 100 | 95 ± 5 | 83 ± 7 | >100 | >100 | 59 ± 6 | 30 | −4 | interfered with the formation of new microvessel networks |  |  | 
2 | Nc1ccc(-c2cn(Cc3cccc(Cl)c3)nn2)cc1 [Compound 22, 4-(1-(3-chlorobenzyl)-1H-1,2,3-triazol-4-yl)aniline] | > 100 | 82 ± 18 | 90 ± 2 | >100 | >100 | 59 ± 5 | 26 | −8 | interfered with the formation of new microvessel networks | 27 ± 5 |  | 
3 | Nc1ccc(-c2cn(Cc3ccc(Cl)cc3)nn2)cc1 [Compound 23, 4-(1-(4-chlorobenzyl)-1H-1,2,3-triazol-4-yl)aniline] | > 100 | >100 | 86 ± 3 | >100 | 84 ± 5 | 51 ± 8 | 29 | −5 | interfered with the formation of new microvessel networks | 38 ± 5 | around 70% | 20
